SMILES strings stand for the structures.

We go through three molecules from patent EP0317105A2, “Phenylalanine derivative and its uses” (AJINOMOTO CO., INC., priority 1987, dated 1989).

The subject of one data set is male ICR mice. In words: Toxicity test: oral administration to mice, survival and LD50. It counts as in vivo. Particulars: for Number of living mice: among 10 head, observation after two weeks; for LD₅₀ values: oral, mice, in words, compared with the known absorption accelerator. On the procedure: A known absorption accelerator, N-(α-fluoro-4-methylcinnamoyl)-L-phenylalanine, and the two absorption accelerators of this invention were each suspended in 0.5% solution of CMC sodium salt at different concentrations, each suspension was orally administered to male ICR mice of 4-week age ( each group consisting of 10 head ), and LD₅₀ values were measured based on the observations after two weeks. The result is summarized in Table 2, in which the figures show the number of living mice when 1.0 g/Kg and 3.0 g/Kg of the compounds were administered.

Data set [1] can be described thus: Activity test using mice: oral insulin co-administered with absorption accelerator, blood glucose and blood insulin measured. The format is in vivo, female ICR-CDI mice. Particulars: insulin 0.5 U/10 g + absorption accelerator 3 mg/10 g, vs control group. On the procedure: Each of the absorption accelerators prepared above was suspended in 0.5% CMC/0.05M Tris-HCl buffer ( pH 7.8 ), insulin was admixed to this suspension, and the resulting mixture was orally administered to a group of female ICR-CDI mice ( five head of 5- to 7-week age ) fasted for 18 hours ( insulin: 0.5 U/10 g, absorption accelerator: 3 mg/10 g ). The rate of reduction in blood glucose (%) and the factor of increase in the insuline level in the blood, in comparison with the data of the control group, were measured at definite intervals.

A short description of data set [2]: Activity test using dogs: oral gelatin capsules of insulin plus absorption accelerator, serum glucose measured. The format is in vivo, male beagles. As to conditions: 50 U/Kg insulin + 25 mg/Kg sodium salt of absorption accelerator, average of two dogs, compared with N-(α-fluoro-4-methylcinnamoyl)-L-phenylalanine. On the procedure:
An absorption acceleration test was conducted using dogs to compare the absorption accelerators of this invention with a known absorption accelerator, N-(α-fluoro-4-methylcinnamoyl)-L-phenylalanine.
Gelatin capsules containing 50 U/Kg insulin and 25 mg/Kg sodium salt of absorption accelerator were orally administered to male beagles of 6- to 8-month age fasted for 18 hours. In this test, the same two dogs were used for each of test samples.
A blood sample was taken from each dog at definite intervals from the peripheral vein in a paw, the amount of glucose in the serum was measured, and the average of two head was calculated. The result is sumarized in the figure.

Regarding `Cc1ccc(C=C(F)C(=O)N[C@@H](Cc2ccccc2)C(=O)O)cc1` [N-(α-fluoro-4-methylcinnamoyl)-L-phenylalanine, reference compound], the “Number of living mice” value worked out at 10 in the data set on male ICR mice (1.0 g/Kg oral) and 6 with male ICR mice (3.0 g/Kg oral).

With `Cc1ccc(C(Cl)=CC(=O)N[C@H](Cc2ccccc2)C(=O)O)cc1` [N-(β-chloro-4-methylcinnamoyl)-D-phenylalanine], the figures for the “Factor of increase in blood-insulin level” value in data set [1] (15 minutes) and in data set [1] (30 minutes) were 2) 2.1 and 2) 3.3, respectively. Besides, the “Rate of reduction in blood glucose level” value is given as 1) 35.7% in data set [1] (15 minutes), 1) 47.8% in data set [1] (30 minutes) and 1) 42.8% in data set [1] (60 minutes). In addition, the “effect of reducing the glucose level in the serum” value in data set [2] is reported as “far higher effect of reducing the glucose level in the serum over longer periods”. Besides, the “Number of living mice” value in the data set on male ICR mice (1.0 g/Kg oral) came out at 10; in the data set with male ICR mice (3.0 g/Kg oral), 6. For the same molecule, the LD₅₀ values entry in the data set on male ICR mice is listed as “equal to, or higher than, that of the known absorption accelerator”.

As for `Cc1ccc(C(Cl)=CC(=O)N[C@@H](Cc2ccccc2)C(=O)O)cc1` [N-(β-chloro-4-methylcinnamoyl)-L-phenylalanine], the “Factor of increase in blood-insulin level” value is 2) 10.5 in data set [1] (15 minutes); 2) 2.0 in data set [1] (30 minutes); 2) 2.1 in data set [1] (60 minutes, "-" = no increase in blood insulin level was observed). Moreover, the “Rate of reduction in blood glucose level” value is 1) 42.1% in data set [1] (15 minutes), 1) 21.6% in data set [1] (30 minutes) and 1) 12.2% in data set [1] (60 minutes). For the same molecule, the “effect of reducing the glucose level in the serum” value in data set [2] is “far higher effect of reducing the glucose level in the serum over longer periods”. The “Number of living mice” value with male ICR mice (1.0 g/Kg oral) and with male ICR mice (3.0 g/Kg oral) was 10 throughout. The LD₅₀ values entry with male ICR mice was “equal to, or higher than, that of the known absorption accelerator”.
